Laboratory results: patent publication US8513232B2, “Substituted spirocyclic piperidine derivatives as histamine-3 (H3) receptor ligands” (Cephalon, Inc., priority 2008, dated 2013)
Structures can show the parent of a compound that is named as a salt. Where two headings read alike, the source gives them in different places. One block for each molecule: values may come before it.

Tests used:
[1] = target: T1, human H3 receptor (Homo sapiens, UniProt Q9Y5N1); assay: Human H3 radioligand binding ([3H]-N-alpha-methylhistamine, SPA)
T1 construct: expressed in transfected cells
T1 sequence (Q9Y5N1 whole entry): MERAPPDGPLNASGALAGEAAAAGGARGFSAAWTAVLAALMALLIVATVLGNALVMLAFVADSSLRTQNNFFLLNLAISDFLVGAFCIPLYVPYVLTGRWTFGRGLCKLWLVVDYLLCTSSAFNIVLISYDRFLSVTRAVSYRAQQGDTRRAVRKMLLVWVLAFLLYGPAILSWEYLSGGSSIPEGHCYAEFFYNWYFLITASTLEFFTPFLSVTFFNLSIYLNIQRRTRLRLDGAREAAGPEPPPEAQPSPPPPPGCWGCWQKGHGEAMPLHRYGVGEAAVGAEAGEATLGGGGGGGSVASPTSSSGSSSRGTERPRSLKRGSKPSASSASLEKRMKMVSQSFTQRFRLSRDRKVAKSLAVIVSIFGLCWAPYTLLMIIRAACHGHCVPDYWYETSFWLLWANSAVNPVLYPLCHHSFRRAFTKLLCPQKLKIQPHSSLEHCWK
Description: (§1) Methods: CHO cells stably expressing the human H3 receptor (GenBank: NM_007232) were harvested and cell pellets were frozen (−80° C.). Cell pellets were resuspended in 5 mM Tris-HCl, pH 7.5 with […] and a cocktail of protease inhibitors (Complete Protease Inhibitior Tablets, Roche Diagnostics). Cells were disrupted using a polytron cell homogenizer and the suspension was centrifuged at 1000×g for 10 minutes at 4° C. The pellet was discarded and the supernatant centrifuged at 40,000×g for 30 min at 4° C. This membrane pellet was washed in membrane buffer containing 50 mM Tris-HCl, pH 7.5 with 0.6 mM EDTA, 5 mM MgCl2 and protease inhibitors, recentrifuged as above and the final pellet resuspended in membrane buffer plus 250 mM sucrose and frozen at −80° C.
(§2) Radioligand Binding. Membranes were resuspended in 50 mM Tris HCl (pH 7.4), 5 mM MgCl2, 0.1% BSA. The membrane suspensions (10 μg protein per well) were incubated in a 96 well microtiter plate with [^3H]-N-alpha-methylhistamine (approximately 1 nM final concentration), test compounds at various concentrations (0.01 nM-30 μM) and scintillation proximity beads (Perkin Elmer, FlashBlueGPCR Scintillating Beads) in a final volume of 80 μl for 4 hours at room temperature, protected from light. Non-specific binding was determined in the presence of 10 μM clobenpropit. Radioligand bound to receptor, and therefore in proximity to the scintillation beads, was measured using a MicroBeta scintillation counter.

[2] = target: T2, rat histamine H3 receptor (Rattus norvegicus, UniProt Q9QYN8); assay: Rat H3 radioligand binding ([3H]-N-alpha-methylhistamine, SPA)
T2 construct: encoding the entire 445-amino-acid rat histamine H3 receptor; expressed in transfected cells; membrane preparation
T2 sequence (Q9QYN8 whole entry): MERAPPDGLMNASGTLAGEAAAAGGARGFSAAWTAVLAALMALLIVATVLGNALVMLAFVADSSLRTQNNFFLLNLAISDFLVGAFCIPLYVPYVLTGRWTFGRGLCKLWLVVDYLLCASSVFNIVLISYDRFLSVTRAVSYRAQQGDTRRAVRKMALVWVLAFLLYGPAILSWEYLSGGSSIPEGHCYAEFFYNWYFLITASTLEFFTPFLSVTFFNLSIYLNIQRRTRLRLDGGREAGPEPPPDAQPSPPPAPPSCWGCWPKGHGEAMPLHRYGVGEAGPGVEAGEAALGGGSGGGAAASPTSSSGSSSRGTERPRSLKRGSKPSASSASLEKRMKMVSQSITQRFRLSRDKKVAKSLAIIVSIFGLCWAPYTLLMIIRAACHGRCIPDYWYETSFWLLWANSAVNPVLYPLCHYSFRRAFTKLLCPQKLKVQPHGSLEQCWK
From the text: as §1, with “Cell line development and membrane preparation. The rat” for “Methods: CHO cells stably expressing the human”, “cDNA was PCR amplified from reverse-transcribed RNA pooled from rat thalamus, hypothalamus, striatum and prefrontal cortex with a sequence corresponding to by #338-1672 of Genbank file #NM_053506, encoding the entire 445-amino-acid rat histamine H3 receptor. This was engineered into the pIRES-neo3 mammalian expression vector, which was stably transfected into the CHO-A3 cell line (Euroscreen, Belgium), followed by clonal selection by limiting dilution. Cells” for “(GenBank: NM_007232)”
as §2

[3] = Human H3 binding, Table B, Examples 136-362, read-out: hum H3 binding Ki
[4] = Rat H3 binding, Table B, Examples 136-362, read-out: rat H3 binding Ki
[5] = Table C, human H3 binding, read-out: Human H3 Ki
[6] = Table C, rat H3 binding, read-out: Rat H3 Ki
[7] = Table A, human H3 binding, read-out: Human Ki
[8] = Table A, rat H3 binding, read-out: Rat Ki
[9] = human H3 binding, Table D, read-out: Human H3 Ki
[10] = rat H3 binding, Table D, read-out: Rat H3 Ki

Compound: CNC(=O)c1c(F)cc(-c2ccc3c(c2)COC2(CCN(C4CCC4)CC2)O3)cc1F [Example 220]
Ki [1, 3]: < 200 nM
Ki [2, 4]: < 200 nM
melting point: 212.6 to 214.2 °C

Compound: O=C(c1ccc(-c2ccc3c(c2)CCC2(CCN(C4CCC4)CC2)O3)cc1F)N1CC[C@H](O)C1 [Example 194]
Ki [1, 3]: < 200 nM
Ki [2, 4]: < 200 nM
melting point: 78 to 80 °C

Compound: O=C(Nc1ccc2c(c1)COC1(CCN(C3CCC3)CC1)O2)c1cnco1 [Example 286]
Ki [1, 3]: < 200 nM
Ki [2, 4]: < 200 nM
melting point: 175 to 177 °C

Compound: O=C(c1ccc(-c2ccc3c(c2)COC2(CCN(C4CCC4)CC2)O3)cc1F)N1CCCC1 [Example 41]
Ki [1, 7]: < 200 nM
Ki [2, 8]: < 200 nM
melting point: 171 to 172.5 °C

Compound: CNC(=O)c1ccc(-c2ccc3c(n2)COC2(CCN(C4CCC4)CC2)O3)cc1F [Example 133]
Ki [1, 7]: < 200 nM
Ki [2, 8]: < 200 nM
melting point: 172 to 173 °C

Compound: COC1CCN(C(=O)c2ccc(-c3ccc4c(c3)CCC3(CCN(C5CCC5)CC3)O4)cn2)CC1 [Example 251]
Ki [1, 3]: < 200 nM
Ki [2, 4]: < 200 nM
melting point: 150 to 152 °C

Compound: COCCNC(=O)c1ccc(-c2ccc3c(c2)COC2(CCN(C4CCC4)CC2)O3)cn1 [Example 195]
Ki [1, 3]: < 200 nM
Ki [2, 4]: < 200 nM
melting point: 113 to 114 °C

Compound: O=C(c1ccc(Nc2ccc3c(c2)COC2(CCN(C4CCC4)CC2)O3)cc1)N1CC[C@@H](O)C1 [Example 215]
Ki [1, 3]: < 200 nM
Ki [2, 4]: < 200 nM
melting point: 114 to 116 °C

Compound: c1ccc(Oc2ccc3c(c2)COC2(CCN(C4CCC4)CC2)O3)cc1 (as salt: HCl) [Example 131]
melting point: 240 to 245 °C

Compound: Cc1nc(C)c(-c2ccc3c(c2)COC2(CCN(C4CCC4)CC2)O3)s1 (as salt: HCl) [Example 70]
melting point: 225 to 227 °C

Compound: c1ccc(Oc2ccc3c(c2)COC2(CCN(C4CCC4)CC2)O3)cc1 [Example 131]
Ki [1, 7]: 200 to 1000 nM
Ki [2, 8]: < 200 nM

Compound: N#Cc1ccccc1-c1ccc2c(c1)COC1(CCN(C3CCC3)CC1)O2 [Example 73]
Ki [1, 7]: < 200 nM
Ki [2, 8]: < 200 nM

Compound: NC(=O)c1ccc(-c2ccc3c(c2)CCC2(CCN(C4CCC4)CC2)O3)cc1 [Example 113]
Ki [1, 7]: < 200 nM
Ki [2, 8]: < 200 nM

Compound: O=C(NC1CC1)c1ccc(-c2ccc3c(c2)CCC2(CCN(C4CCC4)CC2)O3)cc1 [Example 109]
Ki [1, 7]: < 200 nM
Ki [2, 8]: < 200 nM

Compound: O=C(c1cccc(-c2ccc3c(c2)COC2(CCN(C4CCC4)CC2)O3)c1)N1CCCCC1 [Example 53]
Ki [1, 7]: < 200 nM
Ki [2, 8]: < 200 nM

Compound: COCCN(C)C(=O)c1ccc(-c2ccc3c(c2)CCC2(CCN(C4CCC4)CC2)O3)cc1F [Example 294]
Ki [1, 3]: < 200 nM
Ki [2, 4]: < 200 nM

Compound: CCS(=O)(=O)c1ccc(-c2ccc3c(c2)COC2(CCN(C4CCC4)CC2)O3)cc1 [Example 20]
Ki [1, 7]: < 200 nM
Ki [2, 8]: < 200 nM

Compound: O=C(c1ccc(-c2ccc3c(c2)CCC2(CCN(C4CCC4)CC2)O3)cn1)N1CC[C@H](O)C1 [Example 213]
Ki [1, 3]: < 200 nM
Ki [2, 4]: < 200 nM

Compound: c1ncc(-c2ccc3c(c2)CCC2(CCN(C4CCC4)CC2)O3)cn1 [Example 107]
Ki [1, 7]: < 200 nM
Ki [2, 8]: < 200 nM

Compound: O=C(c1ccc(-c2ccc3c(c2)COC2(CCN(C4CCC4)CC2)O3)cc1)N1CCOCC1 [Example 9]
Ki [1, 7]: < 200 nM
Ki [2, 8]: < 200 nM

Compound: O=C(c1cccc(-c2ccc3c(c2)COC2(CCN(C4CCC4)CC2)O3)c1)N1CCOCC1 [Example 56]
Ki [1, 7]: < 200 nM
Ki [2, 8]: < 200 nM

Compound: c1cc2c(cc1-c1cn[nH]c1)CCC1(CCN(C3CCC3)CC1)O2 [Example 114]
Ki [1, 7]: < 200 nM
Ki [2, 8]: < 200 nM

Compound: O=C(c1ccc(-c2ccc3c(c2)OC2(CCN(C4CCC4)CC2)O3)cc1)N1CCOCC1 [Example 89]
Ki [1, 7]: < 200 nM
Ki [2, 8]: < 200 nM

Further lines, results first:

Ki [1, 5]: < 200 nM
Ki [2, 6]: < 200 nM
melting point: > 283 °C (dec.)
Compound: FC1(F)CCN(c2ccc3c(c2)CCC2(CCN(C4CCC4)CC2)O3)CC1 [Example 404]

Ki ([1]; read-out: Human H3 Ki): < 200 nM
Ki ([2]; read-out: Rat H3 kI): < 200 nM
melting point: 191 to 192 °C
Compound: OC1(c2ccc3c(c2)COC2(CCN(C4CCC4)CC2)O3)CCC2(CC1)OCCO2 [Example 492]

Ki ([1]; read-out: Human H3 Ki): < 200 nM
Ki ([2]; read-out: Rat H3 kI): < 200 nM
melting point: 199 to 201 °C
Compound: COC1(c2ccc3c(c2)COC2(CCN(C4CCC4)CC2)O3)CCS(=O)(=O)CC1 [Example 542]

Ki [1, 5]: < 200 nM
Ki [2, 6]: < 200 nM
melting point: 157 to 158 °C
Compound: COC(=O)N1CCN(c2ccc3c(c2)CCC2(CCN(C4CCC4)CC2)O3)CC1 [Example 373]

Ki [1, 5]: < 200 nM
Ki [2, 6]: < 200 nM
melting point: 243 to 245 °C
Compound: COc1cccc(N2CCN(c3ccc4c(c3)CCC3(CCN(C5CCC5)CC3)O4)CC2)n1 [Example 382]

Ki [1, 9]: < 200 nM
Ki [2, 10]: < 200 nM
melting point: 135.9 to 137.2 °C
Compound: Cc1cc(C2CCN(c3ccc4c(c3)COC3(CCN(C5CCC5)CC3)O4)CC2)on1 [Example 665]

Ki [1, 3]: < 200 nM
Ki [2, 4]: < 200 nM
melting point: 159 to 161 °C
Compound: CS(=O)(=O)N1CCC(COc2ccc3c(c2)CCC2(CCN(C4CCC4)CC2)O3)CC1 [Example 335]

Ki [1, 5]: < 200 nM
Ki [2, 6]: < 200 nM
melting point: 138 to 139 °C
Compound: FC(F)(F)c1cccnc1N1CCN(c2ccc3c(c2)CCC2(CCN(C4CCC4)CC2)O3)CC1 [Example 367]

Ki ([1]; read-out: Human H3 Ki): < 200 nM
Ki ([2]; read-out: Rat H3 kI): < 200 nM
melting point: 208 to 209 °C
Compound: Cn1ccc(-c2ccc3c(c2)COC2(CCN(C4CCC4)CC2)O3)cc1=O [Example 547]

Ki [1, 9]: < 200 nM
Ki [2, 10]: < 200 nM
melting point: 143 to 145 °C
Compound: Cc1c(-c2ccc3c(c2)COC2(CCN(C4CCC4)CC2)O3)ccc(=O)n1C(F)F [Example 763]

Ki [1, 9]: < 200 nM
Ki [2, 10]: < 200 nM
melting point: 88.9 to 91.4 °C
Compound: OCC1CCN(c2ccc3c(c2)COC2(CCN(C4CCC4)CC2)O3)CC1 [Example 601]

Ki [1, 9]: < 200 nM
Ki [2, 10]: < 200 nM
melting point: 149.8 to 150.4 °C
Compound: COc1cc(C)c(-c2ccc3c(c2)COC2(CCN(C4CCC4)CC2)O3)c(C)n1 [Example 795]

Ki [1, 9]: < 200 nM
Ki [2, 10]: < 200 nM
melting point: 129 to 130 °C
Compound: O=c1ccc(-c2ccc3c(c2)COC2(CCN(C4CCC4)CC2)O3)cn1CCO [Example 720]

Ki [1, 9]: 200 to 1000 nM
melting point: 235 to 237 °C
Compound: O=C(O)CCc1ccc2c(c1)COC1(CCN(C3CCC3)CC1)O2 [Example 637]

melting point: 182 to 190 °C
Compound: CC(C)Cn1cc(-c2ccc3c(c2)COC2(CCN(C4CCC4)CC2)O3)ccc1=O (as salt: HCl) [Example 562]

Ki [1, 9]: > 1000 nM
melting point: 228 to 230 °C
Compound: O=c1ccc(-c2ccc3c(c2)COC2(CCN(C4CC(CO)C4)CC2)O3)c[nH]1 (centres unmarked) [Example 721]

melting point: 98 to 103 °C
Compound: CC(C)CN1CC(c2ccc3c(c2)COC2(CCN(C4CCC4)CC2)O3)CCC1=O (centres unmarked) (as salt: HCl) [Example 564]

melting point: > 320 °C
Compound: c1cc2c(cc1OC1CCNCC1)CCC1(CCN(C3CCC3)CC1)O2 (as salt: HCl) [Example 425]

Ki [1, 3]: < 200 nM
Ki [2, 4]: < 200 nM
Compound: COCCN(C)C(=O)c1ccc(-c2ccc3c(c2)COC2(CCN(C4CCC4)CC2)O3)cc1F [Example 300]

Ki ([1]; read-out: Human H3 Ki): < 200 nM
Ki ([2]; read-out: Rat H3 kI): < 200 nM
Compound: COC1(c2ccc3c(c2)COC2(CCN(C4CCC4)CC2)O3)CCC(C(F)(F)F)CC1 (centres unmarked) [Example 568]

Ki ([1]; read-out: Human H3 Ki): < 200 nM
Ki ([2]; read-out: Rat H3 kI): < 200 nM
Compound: CC(C)CN1CC(c2ccc3c(c2)COC2(CCN(C4CCC4)CC2)O3)CCC1=O (centres unmarked) [Example 564]

Ki [1, 3]: < 200 nM
Ki [2, 4]: < 200 nM
Compound: c1cnc(COc2ccc3c(c2)CCC2(CCN(C4CCC4)CC2)O3)nc1 [Example 317]

Ki ([1]; read-out: Human H3 Ki): < 200 nM
Ki ([2]; read-out: Rat H3 kI): < 200 nM
Compound: c1cc2c(cc1OC1CCSC1)CCC1(CCN(C3CCC3)CC1)O2 (centres unmarked) [Example 484]

Ki ([1]; read-out: Human H3 Ki): < 200 nM
Ki ([2]; read-out: Rat H3 kI): < 200 nM
Compound: Cc1c(-c2ccc(=O)n(C)c2)ccc2c1COC1(CCN(C3CCC3)CC1)O2 [Example 557]
